Experiment [1] concerns the target T1, full-length RORγt in Jurkat cells (Homo sapiens, UniProt P51449).
T1 construct: transcriptional activity of the full-length RORγt in Jurkat cells; host or cells: Jurkat cells (ATCC TIB-152)
T1 sequence (P51449 1-497 isoform P51449-2): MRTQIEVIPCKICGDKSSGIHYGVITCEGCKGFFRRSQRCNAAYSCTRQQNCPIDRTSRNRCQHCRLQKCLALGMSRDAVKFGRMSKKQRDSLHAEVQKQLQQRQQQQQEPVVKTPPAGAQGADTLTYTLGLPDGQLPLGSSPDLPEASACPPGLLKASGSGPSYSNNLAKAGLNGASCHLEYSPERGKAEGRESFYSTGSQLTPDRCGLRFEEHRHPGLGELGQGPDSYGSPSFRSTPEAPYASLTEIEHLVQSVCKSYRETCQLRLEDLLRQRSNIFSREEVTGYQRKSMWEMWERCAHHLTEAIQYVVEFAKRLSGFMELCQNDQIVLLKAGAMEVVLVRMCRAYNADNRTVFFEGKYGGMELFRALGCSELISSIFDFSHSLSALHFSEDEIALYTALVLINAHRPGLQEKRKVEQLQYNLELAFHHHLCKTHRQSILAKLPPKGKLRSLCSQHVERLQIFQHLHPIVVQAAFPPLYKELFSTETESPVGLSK
The experiment is described as follows: RORγt 5×RORE Assay in Jurkat Cells (Assay 2). The following applies: 5×RORE luciferase reporter, read-out: Avg ROR γt/5x IC50. It is filed as cell-based. Summed up:
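Inverse agonism measured as reduced NanoGlo signal from secreted NanoLuc in conditioned supernatant after 16-18 hrs compound exposure (37° C, 0.1% DMSO). Reporter: 5×RORE-driven secNluc, co-transfected with full-length RORγt into Jurkat cells cultured in delipidated-FBS, phenol-red-free RPMI.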
In general terms: Reporter assays use an easily measured gene product as a stand-in for the process of interest.

The target of experiment [2] is T2, recombinant RORγ Ligand Binding Domain (LBD) protein (Homo sapiens, UniProt P51449).
T2 construct: 6×His; GST
T2 sequence (P51449 269-508 limits assumed): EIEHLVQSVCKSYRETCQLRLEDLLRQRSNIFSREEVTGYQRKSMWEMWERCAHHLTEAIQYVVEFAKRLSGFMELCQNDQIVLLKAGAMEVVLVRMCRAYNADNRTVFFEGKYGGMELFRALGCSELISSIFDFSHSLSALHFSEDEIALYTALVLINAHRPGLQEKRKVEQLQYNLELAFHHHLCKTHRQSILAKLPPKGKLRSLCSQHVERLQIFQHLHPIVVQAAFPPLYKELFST
The experiment is described as follows: Radio-Ligand RORγ Binding Assay (Assay 1). The note with it: radio-ligand competition, 25-hydroxy [26,27-3H]-cholesterol, RORγ LBD; read-out: Avg ROR Bind Ki. Summed up: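 Cell-free SPA competition between compound and 25-hydroxy[26,27-^3H]-cholesterol for 6×His-GST-tagged RORγ LBD in 50 mM HEPES pH 7.4 with NaCl, MgCl2, glycerol, CHAPS, octylglucoside and DTT. Mix was shaken 20 min, held 10 min at rt, then read after poly-Lys YSi beads. IC50 came from a four-parameter fit, and Ki from radioligand KD.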

Bounds are passed on as bounds.

For the compound `CCS(=O)(=O)c1ccc([C@H](CO)NC(=O)c2ccc3c(OC[C@H]4CC[C@H](C(F)(F)F)CC4)nccc3c2)cc1` [Hy1A-8, N-((R)-1-(4-(ethylsulfonyl)phenyl)-2-hydroxyethyl)-1-(((1r,4R)-4-(trifluoromethyl)cyclohexyl)methoxy)isoquinoline-6-carboxamide], the IC50 in experiment [1] is 100 to 1000 nM. In experiment [2], the Ki (commonly the equilibrium dissociation constant of an inhibitor or competing ligand from its target) was below 100 nM.

As to `CCS(=O)(=O)c1ccc(CNC(=O)c2ccc3c(OC[C@H]4CC[C@H](C(F)(F)F)CC4)nc(Cl)cc3c2)cc1` [Hy1A-9, 3-chloro-N-(4-(ethylsulfonyl)benzyl)-1-(((1r,4r)-4-(trifluoromethyl)cyclohexyl)methoxy)isoquinoline-6-carboxamide], in experiment [1], the IC50 is below 100 nM. Further, in experiment [2], the inhibitory constant (Ki) was below 100 nM.

Turning to `CCS(=O)(=O)c1ccc([C@H](CO)NC(=O)c2ccc3c(OC[C@H]4CC[C@H](C(F)(F)F)CC4)nc(C)cc3c2)cc1` [Hy1A-10, N-((R)-1-(4-(ethylsulfonyl)phenyl)-2-hydroxyethyl)-3-methyl-1-(((1r,4R)-4-(trifluoromethyl)cyclohexyl)methoxy)isoquinoline-6-carboxamide], the IC50 in experiment [1] was below 100 nM. Besides, the Ki in experiment [2] is below 100 nM.

For `CCS(=O)(=O)c1ccc([C@H](CO)NC(=O)c2ccc3c(OC[C@H]4CC[C@H](C(F)(F)F)CC4)nc(Cl)cc3c2)cc1` [Hy1A-11, 3-chloro-N-((R)-1-(4-(ethylsulfonyl)phenyl)-2-hydroxyethyl)-1-(((1r,4R)-4-(trifluoromethyl)cyclohexyl)methoxy)isoquinoline-6-carboxamide], in experiment [1], the IC50 is below 100 nM. The Ki in experiment [2] is below 100 nM.

On to `CCS(=O)(=O)c1ccc([C@H](CO)NC(=O)c2ccc3c(OCC4CC(F)(F)C4)nc(C)cc3c2)cc1` [Hy1A-12, (R)-1-((3,3-difluorocyclobutyl)methoxy)-N-(1-(4-(ethylsulfonyl)phenyl)-2-hydroxyethyl)-3-methylisoquinoline-6-carboxamide], for which the IC50 in experiment [1] is above 1000 nM. Besides, in experiment [2], the Ki is below 100 nM.

Consider `CCS(=O)(=O)c1ccc([C@H](CO)NC(=O)c2ccc3c(OCc4ccc(F)cc4)nc(C)cc3c2)cc1` [Hy1A-13, (R)-N-(1-(4-(ethylsulfonyl)phenyl)-2-hydroxyethyl)-1-((4-fluorobenzyl)oxy)-3-methylisoquinoline-6-carboxamide], for which the IC50 in experiment [1] fell in the range of 100 to 1000 nM. The Ki in experiment [2] is below 100 nM.

On to `CCS(=O)(=O)c1ccc([C@H](CO)NC(=O)c2ccc3c(OCC4CCC(F)(F)CC4)nc(C)cc3c2)cc1` [Hy1A-14, (R)-1-((4,4-difluorocyclohexyl)methoxy)-N-(1-(4-(ethylsulfonyl)phenyl)-2-hydroxyethyl)-3-methylisoquinoline-6-carboxamide], for which the IC50 in experiment [1] was below 100 nM. Moreover, the Ki in experiment [2] was below 100 nM.

As to `CCS(=O)(=O)c1ccc([C@H](CO)NC(=O)c2ccc3c(Oc4ccc(OC(F)(F)F)cc4)nc(C)cc3c2)cc1` [Hy1A-15, (R)-N-(1-(4-(ethylsulfonyl)phenyl)-2-hydroxyethyl)-3-methyl-1-(4-(trifluoromethoxy)phenoxy)isoquinoline-6-carboxamide], in experiment [1], the IC50 lay in the range of 100 to 1000 nM. For the same compound, in experiment [2], the Ki is below 100 nM.

In the case of `CCS(=O)(=O)c1ccc([C@@H](CO)NC(=O)c2ccc3c(OC[C@H]4CC[C@H](C(F)(F)F)CC4)nc(C)cc3c2)cc1` [Hy1A-16, N-((S)-1-(4-(ethylsulfonyl)phenyl)-2-hydroxyethyl)-3-methyl-1-(((1r,4S)-4-(trifluoromethyl)cyclohexyl)methoxy)isoquinoline-6-carboxamide], the IC50 in experiment [1] was below 100 nM. The inhibition constant Ki in experiment [2] was below 100 nM.

As for `CCS(=O)(=O)c1ccc([C@H](CO)NC(=O)c2ccc3c(OC4CCN(CC(F)(F)F)CC4)nc(C)cc3c2)cc1` [Hy1A-17, (R)-N-(1-(4-(ethylsulfonyl)phenyl)-2-hydroxyethyl)-3-methyl-1-((1-(2,2,2-trifluoroethyl)piperidin-4-yl)oxy)isoquinoline-6-carboxamide], in experiment [1], the IC50 is above 1000 nM. Moreover, in experiment [2], the inhibitory constant (Ki) is below 100 nM.

Consider `CCS(=O)(=O)c1ccc([C@H](CO)NC(=O)c2ccc3c(OCC4CCN(CC(F)(F)F)CC4)nc(C)cc3c2)cc1` [Hy1A-19, (R)-N-(1-(4-(ethylsulfonyl)phenyl)-2-hydroxyethyl)-3-methyl-1-((1-(2,2,2-trifluoroethyl)piperidin-4-yl)methoxy)isoquinoline-6-carboxamide], for which the IC50 in experiment [1] is 100 to 1000 nM. Further, the Ki in experiment [2] is below 100 nM.

In the case of `CCc1cc2cc(C(=O)NCc3ccc(S(=O)(=O)CC)cc3)ccc2c(OC[C@H]2CC[C@H](C(F)(F)F)CC2)n1` [Hy1A-20, 3-ethyl-N-(4-(ethylsulfonyl)benzyl)-1-(((1r,4r)-4-(trifluoromethyl)cyclohexyl)methoxy)isoquinoline-6-carboxamide], the IC50 in experiment [1] was below 100 nM. Besides, the inhibition constant (Ki) in experiment [2] is below 100 nM.

In the case of `CCS(=O)(=O)c1ccc([C@H](CO)NC(=O)c2ccc3c(OC[C@H]4CC[C@H](C(F)(F)F)CC4)nc(C4CC4)cc3c2)cc1` [Hy1A-21, 3-cyclopropyl-N-((R)-1-(4-(ethylsulfonyl)phenyl)-2-hydroxyethyl)-1-(((1r,4R)-4-(trifluoromethyl)cyclohexyl)methoxy)isoquinoline-6-carboxamide], in experiment [1], the IC50 was below 100 nM. Besides, in experiment [2], the Ki was below 100 nM.

Take `CCS(=O)(=O)c1ccc([C@H](CO)NC(=O)c2ccc3c(OC[C@H]4CC[C@H](C(F)(F)F)CC4)nc(OC)cc3c2)cc1` [Hy1A-23, N-((R)-1-(4-(ethylsulfonyl)phenyl)-2-hydroxyethyl)-3-methoxy-1-(((1r,4R)-4-(trifluoromethyl)cyclohexyl)methoxy)isoquinoline-6-carboxamide]: in experiment [1], the IC50 is below 100 nM. The inhibitory constant (Ki) in experiment [2] was below 100 nM.

Regarding `CCS(=O)(=O)c1ccc([C@H](CO)NC(=O)c2ccc3c(COc4ccc(C(F)(F)F)cc4)nccc3c2)cc1` [Hy1A-24, (R)-N-(1-(4-(ethylsulfonyl)phenyl)-2-hydroxyethyl)-1-((4-(trifluoromethyl)phenoxy)methyl)isoquinoline-6-carboxamide], the IC50 in experiment [1] fell in the range of 100 to 1000 nM. Besides, the Ki in experiment [2] was below 100 nM.

Consider `CCS(=O)(=O)c1ccc([C@H](CO)NC(=O)c2ccc3c(OCc4ccc(C(F)(F)F)cc4)cc(C)nc3c2)cc1` [Hy1B-3, (R)-N-(1-(4-(ethylsulfonyl)phenyl)-2-hydroxyethyl)-2-methyl-4-((4-(trifluoromethyl)benzyl)oxy)quinoline-7-carboxamide], for which, in experiment [1], the IC50 fell in the range of 100 to 1000 nM. In addition, the Ki in experiment [2] was below 100 nM.

As to `CCS(=O)(=O)c1ccc(CNC(=O)c2ccc3c(c2)CCN(c2ncc(C(F)(F)F)cn2)C3C(C)C)cc1` (stereo not drawn) [Hy2A-2, N-(4-(ethylsulfonyl)benzyl)-1-isopropyl-2-(5-(trifluoromethyl)pyrimidin-2-yl)-1,2,3,4-tetrahydroisoquinoline-6-carboxamide], the IC50 in experiment [1] is above 1000 nM. In addition, the Ki in experiment [2] lay within 100 to 1000 nM.

With `CCS(=O)(=O)c1ccc(CNC(=O)c2ccc3c(c2)CCN(c2nccc(C(F)(F)F)n2)C3C(C)C)cc1` (stereo not drawn) [Hy2A-3, N-(4-(ethylsulfonyl)benzyl)-1-isopropyl-2-(4-(trifluoromethyl)pyrimidin-2-yl)-1,2,3,4-tetrahydroisoquinoline-6-carboxamide], the IC50 in experiment [1] is above 1000 nM. In addition, in experiment [2], the inhibition constant Ki was below 100 nM.

(Values after US11008340B2, “Modulators of ROR-gamma” (Vitae Pharmaceuticals, LLC, priority 2015, dated 2021).)
